Measured values from patent US20190060473A1, “HSP90 INHIBITOR DRUG CONJUGATES” (priority 2016, published 2019).

Legend:
[1] = target: Hsp90; assay: Binding affinity (Kd) by standard methods
Description: Finally, binding affinity (Kd) was determined for various HDCs using standard methods.

[2] = test system: HER2 expression in BT-474 human breast cancer cells; assay: In-Cell Western assay (ICW) for HER2 expression in BT-474 cells; assay type: cell-based; conditions: BT-474 cells, 24 h incubation, 3-fold serial dilutions, HER2 signal normalized to DRAQ5; read-out: HER2 (ICW)
Description: The HDCs as described herein were used in various experiments to determine their activity and properties, such as binding affinity and stability in blood. An in-Cell Western assay (ICW) for HER2 expression was carried out in BT-474 human breast cancer cells. BT-474 cells were seeded in 96-well plates at a density of 20,000 cells per well. Twenty-four hours after plating, cells were dosed with graded concentrations of HDCs using 3-fold serial dilutions and incubated for 24 h. Growth media containing drug was aspirated off. Cells were then fixed in 4% paraformaldehyde for 20 min and washed three times in 0.1% Triton X-100. After blocking for 1.5 h in Odyssey Blocking Buffer (LI-COR, Lincoln, Nebr., USA), cells were incubated with primary HER2 antibody overnight at 4° C. Wells were washed three times with 0.1% Tween-20 and incubated in secondary antibody (LI-COR, Lincoln, Nebr., USA) and DRAQ5 (CST, Beverly, Mass., USA) for 1 h. Following 3 final washes with 0.1% Tween-20, antibody-antigen complexes were visualized using the Odyssey system. For quantification, HER2 signal was normalized to DRAQ5 flourescent probe.

[3] = Metabolic stability in mouse whole blood (LC-MS/MS); assay type: in vitro ADME; conditions: mouse whole blood, 10 μM, percent of test compound remaining after 1 hour, average of duplicate
Description: Metabolic stability of various HDCs was tested in mouse blood. All compounds were tested at a concentration of 10 μM. The time dependent disappearance of test compound in mouse whole blood, and the release of the compound qualitatively as determined by liquid chromatography tandem mass spectrometry (LC-MS/MS), was tested at time points of 15 minutes, 30 minutes, 45 minutes and 1 hour. All compounds were tested in duplicate, and the average was taken. The results in Table 2 show the percent of test compound remaining after 1 hour.

SMILES | Kd [1] [nM] | IC50 [2] [nM] | Mouse blood stability 1 h (% remaining) [3] [%]
CC(C)Nc1cc(-c2c[nH]c(C(=O)N[C@H](COC(=O)C3CCN(C(=O)C4CCN(Cc5ccc(-n6c(O)nnc6-c6cc(C(C)C)c(O)cc6O)cc5F)CC4)CC3)c3cccc(Cl)c3)c2)c(Cl)cn1 [SDC-TRAP-0511, (S)-2-(4-(5-chloro-2-(isopropylamino)pyridin-4-yl)-1H-pyrrole-2-carboxamido)-2-(3-chlorophenyl)ethyl 1-(1-(4-(3-(2,4-dihydroxy-5-isopropylphenyl)-5-hydroxy-4H-1,2,4-triazol-4-yl)-2-fluorobenzyl)piperidine-4-carbonyl)piperidine-4-carboxylate] | 2.9 | 465 | 30.8
CCNC(=O)c1nnc(-c2cc(C(C)C)c(O)cc2O)n1-c1ccc(CN2CCC(C(=O)N3CC[C@H](C(=O)OC[C@@H](NC(=O)c4cc(-c5cc(NC(C)C)ncc5Cl)c[nH]4)c4cccc(Cl)c4)C3)CC2)c(F)c1 [SDC-TRAP-0516, (S)-(S)-2-(4-(5-chloro-2-(isopropylamino)pyridin-4-yl)-1H-pyrrole-2-carboxamido)-2-(3-chlorophenyl)ethyl 1-(1-(4-(3-(2,4-dihydroxy-5-isopropylphenyl)-5-(ethylcarbamoyl)-4H-1,2,4-triazol-4-yl)-2-fluorobenzyl)piperidine-4-carbonyl)pyrrolidine-3-carboxylate] | 1.29 | 123 | 55.5
CC(C)Nc1cc(-c2c[nH]c(C(=O)N[C@H](COC(=O)C3(NC(=O)C4CCN(Cc5ccc(-n6c(O)nnc6-c6cc(C(C)C)c(O)cc6O)cc5F)CC4)CC3)c3cccc(Cl)c3)c2)c(Cl)cn1 [SDC-TRAP-0509, (S)-2-(4-(5-chloro-2-(isopropylamino)pyridin-4-yl)-1H-pyrrole-2-carboxamido)-2-(3-chlorophenyl)ethyl 1-(1-(4-(3-(2,4-dihydroxy-5-isopropylphenyl)-5-hydroxy-4H-1,2,4-triazol-4-yl)-2-fluorobenzyl)piperidine-4-carboxamido)cyclopropanecarboxylate] |  | 2690 | 86.9
CC(C)Nc1cc(-c2c[nH]c(C(=O)N[C@H](COC(=O)CC3CCN(C(=O)C4CCN(Cc5ccc(-n6c(O)nnc6-c6cc(C(C)C)c(O)cc6O)cc5F)CC4)CC3)c3cccc(Cl)c3)c2)c(Cl)cn1 [SDC-TRAP-0513, (S)-2-(4-(5-chloro-2-(isopropylamino)pyridin-4-yl)-1H-pyrrole-2-carboxamido)-2-(3-chlorophenyl)ethyl 2-(1-(1-(4-(3-(2,4-dihydroxy-5-isopropylphenyl)-5-hydroxy-4H-1,2,4-triazol-4-yl)-2-fluorobenzyl)piperidine-4-carbonyl)piperidin-4-yl)acetate] | 0.88 | 519 | 48.2
CCNC(=O)c1nnc(-c2cc(C(C)C)c(O)cc2O)n1-c1ccc(CN2CCC(C(=O)N3CCC(C(=O)OC[C@@H](NC(=O)c4cc(-c5cc(NC(C)C)ncc5Cl)c[nH]4)c4cccc(Cl)c4)CC3)CC2)c(F)c1 [SDC-TRAP-0510, (S)-2-(4-(5-chloro-2-(isopropylamino)pyridin-4-yl)-1H-pyrrole-2-carboxamido)-2-(3-chlorophenyl)ethyl 1-(1-(4-(3-(2,4-dihydroxy-5-isopropylphenyl)-5-(ethylcarbamoyl)-4H-1,2,4-triazol-4-yl)-2-fluorobenzyl)piperidine-4-carbonyl)piperidine-4-carboxylate] | 6.14 | 91 | 77.1
CCNC(=O)c1nnc(-c2cc(C(C)C)c(O)cc2O)n1-c1ccc(CN2CCC(C(=O)N3CCC(CC(=O)OC[C@@H](NC(=O)c4cc(-c5cc(NC(C)C)ncc5Cl)c[nH]4)c4cccc(Cl)c4)CC3)CC2)c(F)c1 [SDC-TRAP-0512, (S)-2-(4-(5-chloro-2-(isopropylamino)pyridin-4-yl)-1H-pyrrole-2-carboxamido)-2-(3-chlorophenyl)ethyl 2-(1-(1-(4-(3-(2,4-dihydroxy-5-isopropylphenyl)-5-(ethylcarbamoyl)-4H-1,2,4-triazol-4-yl)-2-fluorobenzyl)piperidine-4-carbonyl)piperidin-4-yl)acetate] |  | 60 | 100
CCNC(=O)c1nnc(-c2cc(C(C)C)c(O)cc2O)n1-c1ccc(CN2CCC(C(=O)N3CC(C(=O)OC[C@@H](NC(=O)c4cc(-c5cc(NC(C)C)ncc5Cl)c[nH]4)c4cccc(Cl)c4)C3)CC2)c(F)c1 [SDC-TRAP-0515, (S)-2-(4-(5-chloro-2-(isopropylamino)pyridin-4-yl)-1H-pyrrole-2-carboxamido)-2-(3-chlorophenyl)ethyl 1-(1-(4-(3-(2,4-dihydroxy-5-isopropylphenyl)-5-(ethylcarbamoyl)-4H-1,2,4-triazol-4-yl)-2-fluorobenzyl)piperidine-4-carbonyl)azetidine-3-carboxylate] | 0.97 | 181 | 30
CCNC(=O)c1nnc(-c2cc(C(C)C)c(O)cc2O)n1-c1ccc(C(=O)N(C)[C@@H](C(=O)N[C@H](C(=O)N(C)C([C@@H](C)CC)[C@@H](CC(=O)N2CCC[C@@H]2[C@@H](OC)[C@@H](C)C(=O)N[C@@H](C)[C@H](O)c2ccccc2)OC)C(C)C)C(C)C)cc1 (stereo partly drawn) [SDC-TRAP-0536, 5-(2,4-dihydroxy-5-isopropylphenyl)-N-ethyl-4-(4-(((2R)-1-(((2S)-1-(((3R,5S)-1-((R)-2-((1S,2R)-3-(((1R,2S)-1-hydroxy-1-phenylpropan-2-yl)amino)-1-methoxy-2-methyl-3-oxopropyl)pyrrolidin-1-yl)-3-methoxy-5-methyl-1-oxoheptan-4-yl)(methyl)amino)-3-methyl-1-oxobutan-2-yl)amino)-3-methyl-1-oxobutan-2-yl)(methyl)carbamoyl)phenyl)-4H-1,2,4-triazole-3-carboxamide] | 0.77 |  | 
